According to article PMC4045134, “Discovery of Triterpenoids as Reversible Inhibitors of α/β-hydrolase Domain Containing 12 (ABHD12)” (PLoS ONE, 2014):
Entries after “also recorded” stand apart in the source; their conditions may differ. Like-named read-outs stand apart in the source and are kept apart here.

Legend:
Assay type in all cases: biochemical
CB1R [1] = target: T1, CB1R (Rattus norvegicus, UniProt P20272); assay: [35S]GTPγS binding, CB1R agonist activity, rat cerebellar membranes; conditions: 10 µM
T1 construct: membranes prepared from brain tissue of 4-week-old male rodents were used; from tissue; host or cells: rat cerebellar membranes
T1 sequence (P20272 whole entry): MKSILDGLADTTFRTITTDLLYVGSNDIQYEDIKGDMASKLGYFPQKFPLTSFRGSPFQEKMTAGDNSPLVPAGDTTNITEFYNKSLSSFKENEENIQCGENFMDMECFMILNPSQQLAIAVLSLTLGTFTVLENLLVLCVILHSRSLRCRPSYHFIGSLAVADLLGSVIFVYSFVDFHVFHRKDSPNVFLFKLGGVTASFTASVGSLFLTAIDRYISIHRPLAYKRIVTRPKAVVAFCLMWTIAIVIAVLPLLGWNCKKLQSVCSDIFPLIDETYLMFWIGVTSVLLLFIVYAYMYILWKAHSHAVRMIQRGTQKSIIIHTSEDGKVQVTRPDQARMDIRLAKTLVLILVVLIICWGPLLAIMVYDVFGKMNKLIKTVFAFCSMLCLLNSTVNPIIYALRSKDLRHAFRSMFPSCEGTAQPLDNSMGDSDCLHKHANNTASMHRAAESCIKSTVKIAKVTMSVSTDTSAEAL
Procedure: (§1) The CB1 and CB2 receptor activity of the selected compounds (10 µM) were measured using the GTPγS binding assay according to the previously described methods, [33].
(§2) For ABPP experiments (Figure 6C) and cannabinoid receptor activity assays (Table S2), membranes prepared from brain tissue of 4-week-old male rodents were used. The animals were obtained from the National Laboratory Animal Centre, University of Eastern Finland. Approval for the harvesting of animal tissue was obtained from the local welfare officer of the University of Eastern Finland.

CB1R [2] = target: T1, CB1R; assay: [35S]GTPγS binding, CB1R antagonist activity, rat cerebellar membranes; conditions: 10 µM
Procedure: as §1, §2

hABHD6 = target: T2, hABHD6 (Homo sapiens, UniProt Q9BV23); assay: Fluorescent glycerol assay in hABHD6-HEK293 lysates; conditions: 10 µM; NI = no inhibition at 10 µM; read-out: hABHD6 Remaining activity % control ± s.e.m (n=3)
T2 construct: expressed in transfected cells; host or cells: HEK293 (transient)
T2 sequence (Q9BV23 1-337): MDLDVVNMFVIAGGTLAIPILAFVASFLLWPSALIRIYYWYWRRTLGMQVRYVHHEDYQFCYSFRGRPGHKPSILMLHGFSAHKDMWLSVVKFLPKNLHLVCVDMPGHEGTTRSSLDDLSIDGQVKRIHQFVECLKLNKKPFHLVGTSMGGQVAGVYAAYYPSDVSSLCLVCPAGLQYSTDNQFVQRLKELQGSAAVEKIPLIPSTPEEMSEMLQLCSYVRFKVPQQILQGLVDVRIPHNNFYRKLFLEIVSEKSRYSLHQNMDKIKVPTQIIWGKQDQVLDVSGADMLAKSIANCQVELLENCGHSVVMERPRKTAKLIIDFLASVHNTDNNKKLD
Procedure: (§3) Glycerol liberated from 1-AG hydrolysis was determined with a sensitive fluorescent assay using lysates of HEK293 cells with transient overexpression of hABHD12, hABHD6 or hMAGL, essentially as previously described. […] Fluorescence (λex 530; λem 590 nm) was monitored using a Tecan Infinite M200 plate reader (Tecan Group Ltd., Männedorf, Switzerland). Inhibitory activities of selected compounds towards FAAH were determined using membranes of hFAAH overexpressing COS-7 cells, essentially as previously described. The final incubation volume (100 µL) contained 1 µg of protein and the substrate concentration was 20 µM (10 nM of ^3H-anandamide having specific activity of 60 Ci/mmol and concentration of 1 mCi/mL).

hABHD12 [3] = target: T3, hABHD12 (Homo sapiens, UniProt Q8N2K0); assay: Fluorescent glycerol assay of 1-AG hydrolysis in hABHD12-HEK293 lysates; conditions: hABHD12-HEK293 lysates; for Emax: read-out: max inhibition (converted)
T3 construct: expressed in transfected cells; host or cells: HEK293 (transient)
T3 sequence (Q8N2K0 1-398): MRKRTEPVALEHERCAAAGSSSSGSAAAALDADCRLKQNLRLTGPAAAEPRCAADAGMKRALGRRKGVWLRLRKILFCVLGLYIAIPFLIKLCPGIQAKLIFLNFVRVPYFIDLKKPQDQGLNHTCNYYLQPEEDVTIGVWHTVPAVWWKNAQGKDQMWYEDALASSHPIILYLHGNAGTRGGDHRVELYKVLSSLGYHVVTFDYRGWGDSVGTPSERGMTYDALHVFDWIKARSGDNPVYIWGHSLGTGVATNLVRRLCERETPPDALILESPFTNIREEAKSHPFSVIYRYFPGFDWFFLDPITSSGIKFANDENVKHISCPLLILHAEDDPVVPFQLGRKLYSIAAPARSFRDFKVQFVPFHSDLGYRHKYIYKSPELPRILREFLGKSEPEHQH
Procedure: as §3

hABHD12 [4] = target: T3, hABHD12; assay: Reversibility testing, 40-fold dilution of enzyme-inhibitor complex; conditions: time points 10, 20, 30, 60 and 90 min
Procedure: Reversibility testing was carried out as previously described. Briefly, DMSO/inhibitor (0.5 µl) was incubated together with hABHD12-HEK293 lysate (4.5 µl, 0.3 µg protein/well) in TEMN-BSA buffer for 30 min. After this, a 40-fold dilution of enzyme-inhibitor complex was brought about by addition of the substrate [1-AG, 12.5 µM final concentration, containing additionally 1% EtOH (v/v)] in 195 µl of glycerol assay mix and fluorescence was kinetically monitored at 10 min intervals for 90 min at RT.

hMAGL = target: T4, hMAGL (Homo sapiens, UniProt Q99685); assay: Fluorescent glycerol assay in hMAGL-HEK293 lysates; conditions: 10 µM; read-out: hMAGL Remaining activity % control ± s.e.m (n=3)
T4 construct: expressed in transfected cells; host or cells: HEK293 (transient)
T4 sequence (Q99685 1-303): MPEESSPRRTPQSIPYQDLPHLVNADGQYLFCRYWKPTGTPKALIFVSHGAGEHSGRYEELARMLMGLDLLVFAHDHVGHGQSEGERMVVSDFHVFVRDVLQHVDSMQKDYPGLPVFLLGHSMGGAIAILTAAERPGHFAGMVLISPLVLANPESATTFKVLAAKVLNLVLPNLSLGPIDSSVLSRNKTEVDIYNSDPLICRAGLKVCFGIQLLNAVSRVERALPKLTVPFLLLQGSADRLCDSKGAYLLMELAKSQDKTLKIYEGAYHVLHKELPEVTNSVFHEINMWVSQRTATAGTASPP
Procedure: as §3

hCB2R = target: T5, hCB2R (Homo sapiens, UniProt P34972); assay: [35S]GTPγS binding, CB2R agonist activity, hCB2R-CHO cell membranes; conditions: 10 µM
T5 construct: expressed in transfected cells; host or cells: CHO
T5 sequence (P34972 whole entry): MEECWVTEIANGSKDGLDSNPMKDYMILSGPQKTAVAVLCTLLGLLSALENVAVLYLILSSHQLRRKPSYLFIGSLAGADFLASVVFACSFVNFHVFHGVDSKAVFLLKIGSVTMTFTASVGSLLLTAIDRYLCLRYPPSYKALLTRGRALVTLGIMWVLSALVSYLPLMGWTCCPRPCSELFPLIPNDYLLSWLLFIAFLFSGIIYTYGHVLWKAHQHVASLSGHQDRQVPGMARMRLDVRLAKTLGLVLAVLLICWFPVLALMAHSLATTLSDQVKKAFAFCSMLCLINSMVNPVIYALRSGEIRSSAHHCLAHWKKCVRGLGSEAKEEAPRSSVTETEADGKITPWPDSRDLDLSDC

hFAAH = target: T6, hFAAH (Homo sapiens, UniProt O00519); assay: FAAH activity, membranes of hFAAH overexpressing COS-7 cells, 3H-anandamide; conditions: read-out: hFAAH Remaining activity % control (mean (range)), n=2
T6 construct: expressed in transfected cells; host or cells: COS-7
T6 sequence (O00519 1-579): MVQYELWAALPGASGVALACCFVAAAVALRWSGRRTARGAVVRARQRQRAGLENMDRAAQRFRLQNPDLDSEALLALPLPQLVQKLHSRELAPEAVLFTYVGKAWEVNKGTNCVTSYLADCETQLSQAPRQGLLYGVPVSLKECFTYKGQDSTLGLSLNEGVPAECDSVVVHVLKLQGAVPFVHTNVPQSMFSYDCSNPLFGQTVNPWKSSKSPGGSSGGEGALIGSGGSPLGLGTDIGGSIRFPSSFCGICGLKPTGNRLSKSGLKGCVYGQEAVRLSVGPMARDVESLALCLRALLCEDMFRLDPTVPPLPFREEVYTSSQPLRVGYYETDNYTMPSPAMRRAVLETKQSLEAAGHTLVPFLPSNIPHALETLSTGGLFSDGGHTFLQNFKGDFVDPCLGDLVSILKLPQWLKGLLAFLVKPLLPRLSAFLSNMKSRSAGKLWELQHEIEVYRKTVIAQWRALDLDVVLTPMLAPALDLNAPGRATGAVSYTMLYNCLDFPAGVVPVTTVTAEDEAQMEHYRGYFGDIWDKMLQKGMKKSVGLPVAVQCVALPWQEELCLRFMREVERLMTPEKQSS
Procedure: as §3

[5] = tested on: metabolic serine hydrolases; assay: Competitive ABPP, other serine hydrolases of mouse brain membrane proteome
Procedure: (§4) Competitive ABPP using HEK293 cell lysates and mouse brain membranes was conducted to visualize effects of selected triterpenoids on the binding of the active site serine-targeting fluorescent fluorophosphonate probe TAMRA-FP following outlines of previous protocols, [31]. Briefly, lysates (25 µg) of HEK293 cells with or without (Mock) hABHD12 overexpression or mouse wholebrain membranes (100 µg) were treated for 1 h with DMSO or the inhibitor, after which TAMRA-FP labelling was conducted for 5 min (lysates) or 1 hour (membranes) at RT (final probe concentration 2 µM). The reaction was quenched by addition of gel loading buffer (followed by boiling for 5 min in the case of lysates), after which 10 µg protein (10 µl) was loaded per lane and the proteins were resolved in 10% SDS-PAGE together with standards. TAMRA-FP labeling was visualized (λex 552; λem 575 nm) by a fluorescent reader (FLA-3000 laser fluorescence scanner, Fujifilm, Tokyo, Japan). The intensity of bands was quantified using ImageJ, a freely available image analysis software (http://rsbweb.nih.gov/ij/).
For ABPP experiments (Figure 6C) and cannabinoid receptor activity assays (Table S2), membranes prepared from brain tissue of 4-week-old male rodents were used. The animals were obtained from the National Laboratory Animal Centre, University of Eastern Finland. […]

ABHD12 = target: T7, ABHD12 (Mus musculus, UniProt Q99LR1); assay: Competitive ABPP with TAMRA-FP in mouse brain membrane proteome; conditions: mouse brain membranes, 1 h inhibitor, 1 h probe
T7 construct: the sole serine hydrolase targeted by the triterpenoids in native brain membrane proteome; from tissue; host or cells: mouse whole-brain membranes
T7 sequence (Q99LR1 1-398): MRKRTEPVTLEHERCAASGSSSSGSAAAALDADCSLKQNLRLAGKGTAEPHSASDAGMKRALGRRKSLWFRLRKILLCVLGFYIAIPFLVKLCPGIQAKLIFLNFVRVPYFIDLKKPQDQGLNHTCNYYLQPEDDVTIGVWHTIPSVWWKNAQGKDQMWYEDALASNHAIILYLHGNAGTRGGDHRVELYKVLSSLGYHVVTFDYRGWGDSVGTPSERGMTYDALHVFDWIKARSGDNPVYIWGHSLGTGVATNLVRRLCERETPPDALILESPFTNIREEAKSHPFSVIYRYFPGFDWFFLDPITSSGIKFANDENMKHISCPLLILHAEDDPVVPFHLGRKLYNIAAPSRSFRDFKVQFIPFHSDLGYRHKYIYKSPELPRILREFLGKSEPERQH
Procedure: as §4, §2

hABHD12 [6] = target: T3, hABHD12; assay: Competitive ABPP with TAMRA-FP in hABHD12-HEK293 lysates; conditions: 1 h inhibitor, 5 min probe
Procedure: as §4

[7] = three independent experiments, read-out: -logIC50±s.e.m. (converted)

SMILES	CB1R agonist activity [35S]GTPγS binding % Basal (Mean (range), n=2) (CB1R [1])	CB1R antagonist activity [35S]GTPγS binding % HU210-evoked response (Mean (range), n=2) (CB1R [2])	remaining activity at 10 µM (hABHD6) [%]	IC50 (hABHD12 [3]; [7]) [nM]	IC50 (hABHD12 [3]; read-out: IC50) [nM]	Emax (hABHD12 [3]) [%]	time-dependency of inhibitor potency (IC50) after 40-fold dilution (hABHD12 [4])	remaining activity at 10 µM (hMAGL) [%]	CB2R agonist activity [35S]GTPγS binding % Basal (Mean (range), n=2) (hCB2R)	remaining activity at 10 µM (hFAAH) [%]	additional targets among the metabolic serine hydrolases [5]	TAMRA-FP probe labeling of ABHD12 (ABHD12)	TAMRA-FP probe labeling of hABHD12 (hABHD12 [6])	remaining activity at 10 µM (hABHD12 [3]; 10 µM, NI = no inhibition, read-out: Remaining activity at 10 µM % ± s.e.m.) [%]
C=C(C)C1CCC2(C(=O)O)CCC3(C)C(CCC4C5(C)Cc6c([nH]c7ccccc67)C(C)(C)C5CCC43C)C12 (stereo not drawn) [Compound 33]	95 (94-96) % Basal	97 (96-98) % HU210-evoked response	81 ± 4.3	933	900	65	time-dependent drop of inhibitor potency	74.8 ± 4.6	102 (90-114) % Basal	90				
C=C(C)[C@@H]1CC[C@]2(C(=O)O)CC[C@]3(C)[C@H](CC[C@@H]4[C@@]5(C)Cc6c([nH]c7ccc(OC)cc67)C(C)(C)[C@@H]5CC[C@]43C)[C@@H]12 [Compound 34]				1620		100	time-dependent drop of inhibitor potency							
CC(C)[C@@H]1CC[C@]2(C(=O)O)CC[C@]3(C)[C@H](CC[C@@H]4[C@@]5(C)CCC(=O)C(C)(C)[C@@H]5CC[C@]43C)[C@@H]12 [Compound 23]	89 (86-92) % Basal	92 (90-95) % HU210-evoked response	83 ± 2.8	1620		89		77.5 ± 3.1	98 (95-100) % Basal	98	no additional targets are evident	selectively inhibited probe labeling of ABHD12; also recorded: dose-dependently inhibit TAMRA-FP labeling of ABHD12 already at 20 µM	dose-dependently inhibited probe labeling of hABHD12	
CCCCCCCCCCC[C@@H](C[C@@H]1OC(=O)[C@H]1CCCCCC)OC(=O)[C@H](CC(C)C)NC=O [THL, tetrahydrolipstatin, reference compound]							remained constant; also recorded: does not change in a statistically significant manner					prevented TAMRA-FP labeling	fully prevented	
C=C(C)[C@@H]1CC[C@]2(C(=O)N3CCCCC3)CC[C@]3(C)[C@H](CC[C@@H]4[C@@]5(C)CC[C@H](O)C(C)(C)[C@@H]5CC[C@]43C)[C@@H]12 [Compound 22]												ineffective, even at 200 µM concentration	lacked activity; also recorded: ineffective	94 ± 0.5
